# Data as given in article PMC6429262, “Design and Synthesis of Novel Anti-Proliferative Emodin Derivatives and Studies on their Cell Cycle Arrest, Apoptosis Pathway and Migration” (Molecules, 2019).
# Legend:
# HepG2 cells [1] = test: Apoptosis analysis, annexin V-FITC/PI flow cytometry; format: cell-based, human; conditions: for Apoptosis percentage, Early apoptosis / Apoptosis percentage, Late apoptosis / Apoptosis percentage, Overall apoptosis: mean ± SD of three experiments; for percentage of apoptotic cells: Figure 3A
# Protocol: In order to verify whether compound 7a is able to induce apoptosis in HepG2 cells, we utilized FITC-Annexin V/PI staining and estimated the percentage of apoptotic cells by flow cytometry. We noted a concentration-dependent increase in the percentage of apoptotic cells when the cells were treated with compound 7a for 48 h at concentrations 2.5, 5, and 10 μM. […] Apoptosis was discriminated with the annexin V-FITC/PI test. Cells were seeded at 2 × 10^5/well in 10% FBS-DMEM into 6-well plates and treated with compounds 7a for 48 h. The cells were washed twice with cold phosphate buffered saline (PBS) and then resuspend in 1× Binding Buffer (0.1M Hepes/NaOH (pH 7.4), 1.4M NaCl, 25 mM CaCl2)) at a concentration of 1 × 10^5 cells/mL. 100 μL of the solution (1 × 10^4 cells) was transferred to a 5 mL culture tube, and 5 μL of FITC Annexin V (BD, Pharmingen, Franklin Lakes, NJ, USA) and 5 μL PI were added to each tube. The cells were gently resuspended by vortexing, and then were incubated for 30 min at RT (25 °C) in the dark. After incubation, 200 μL PBS was added to each tube. The analysis was performed with the system software (CellQuest; BD Biosciences, Franklin Lakes, NJ, USA). Analysis is as follows: lower left quadrant, viable cells (Annexin V−/PI−); lower right quadrant, early apoptotic cells (Annexin V+/PI−); upper right quadrant, late apoptotic cells (annexin V+/PI+); upper left quadrant, necrotic cells (annexin V−/PI+). The percentage of cells positive for PI and Annexin V-FITC was reported inside the quadrants.
# Bax = test: Western blot, Bax; format: cell-based, human; conditions: 48 h
# Protocol: (§1) Total cell lysates from cultured HepG2 cells treated with different concentrations of compound 7a for 48 h were obtained by lysing the cells in ice-cold RIPA buffer (1 PBS, 1% NP-40, 0.5% sodium deoxycholate and 0.1% SDS) containing […] PMSF, 5 mg/mL aprotinin, 5 mg/mL leupeptin, 5 mg/mL pepstatin and […] NaF. After centrifugation at 12,000 rpm for 10 min, the protein in the supernatant was quantified by the Bradford method (BIO-RAD, Hercules, CA, USA) using a Multimode Varioscan instrument (Thermo Fischer Scientific, Waltham, MA, USA). Twenty micrograms of protein per lane was applied in 12% SDS polyacrylamide gel. After electrophoresis, the protein was transferred to a polyvinylidine difluoride membrane (Amersham Biosciences, Marlborough, MA, USA). The membrane was blocked at room temperature for 2 h in TBST containing 5% blocking powder (Santa Cruz, Dallas, TX, USA). The membrane was washed with TBST for 5 min, and the primary antibody was added and incubated at 4 °C overnight (O/N). Bax (5023, CST, Danvers, MA, USA), Bcl-2 (15071, CST), cytochrome c (4280, CST), procaspase-9 (AB138412, Abcam, Cambridge, MA, USA), procaspase-3 (AB32150, Abcam), caspase-3 (66470-2-lg, Proteintech Group, Rosemont, IL, USA) and GAPDH (AB8245, Abcam) antibodies were employed. After three TBST washes, the membrane was incubated with the corresponding horseradish peroxidase-labeled secondary antibody (1:5000) (Santa Cruz) at room temperature for 2 h. Membranes were washed with TBST for 15 min five times and the protein blots were visualized with chemiluminescence reagent (Thermo Fischer Scientific Ltd.). The X-ray films were developed with a developer and fixed with fixer solution. The grey levels were analyzed using ImageQuant LAS 4000 system (GE, Marlborough, MA, USA).
# procaspase-3 = test: Western blot, procaspase-3; format: cell-based, human; conditions: 48 h
# Protocol: as §1
# HepG2 cells [2] = test: Wound healing assay (cell migration); format: cell-based; conditions: Homo sapiens, 48 h, read-out: Inhibition (%) of migration (cell inhibitory rate)
# Protocol: To evaluate the effect of compound 7a on cancer migration, a wound healing assay was conducted to determine whether compound 7a could prevent HepG2 cell migration. After culturing HepG2 cells for 48 h in the presence and absence of compound 7a at 0, 0.25, 0.5, and 1 μM, a pipette tip was streaked through the cell culture, resulting in a cell deficient space. The territory recovered by the HepG2 cells was used to observe the migration inhibition capability of compound 7a.
# HepG2 cells were grown in DMEM medium containing growth factors at a cell density of 1 × 10^5 cells/mL for 24 h. A disposable […] plastic pipette tip was used to scratch the monolayer of cells in a streaking motion. Compounds were added to the streaked cell culture at the indicated concentrations. The streaked cells were then cultured in serum-free medium for an additional 48 h and photographed. To quantify the experimental results, the % cell inhibitory rate was calculated by the equation: cell inhibitory rate (%) = (1 − Ddrug/Dcontrol) × 100%, where Ddrug is the mean distance of cell migration in drug group and Dcontrol is the mean distance of cell migration in control group. Pictures of the initial wounded monolayers were compared with the corresponding pictures of cells at the end of the incubation, and data were presented as mean ± SD from three independent experiments.
smiles,measurement,setting,value
"Cc1cc(O)c2c(c1)C(=O)c1cc(OCCCOC(=O)[C@@H](C)N)cc(O)c1C2=O.O=C(O)C(F)(F)F [Compound 7a, (R)-1-(3-(4,5-Dihydroxy-7-methyl-9,10-dioxo-9,10-dihydroanthracen-2-yloxy)propoxy)-1-oxopropan-2-aminium 2,2,2-trifluoroacetate]","Apoptosis percentage, Early apoptosis","HepG2 cells [1]; HepG2, 2.5 μM",2.91 ± 0.45%
same,"Apoptosis percentage, Late apoptosis","HepG2 cells [1]; HepG2, 2.5 μM",3.69 ± 0.48%
same,"Apoptosis percentage, Overall apoptosis","HepG2 cells [1]; HepG2, 2.5 μM",6.59 ± 0.93%
same,percentage of apoptotic cells,"HepG2 cells [1]; HepG2, 5 μM, 48 h",22.2%
same,"Apoptosis percentage, Early apoptosis","HepG2 cells [1]; HepG2, 5 μM",15.93 ± 0.76%
same,"Apoptosis percentage, Late apoptosis","HepG2 cells [1]; HepG2, 5 μM",7.51 ± 0.68%
same,"Apoptosis percentage, Overall apoptosis","HepG2 cells [1]; HepG2, 5 μM",23.450 ± 1.07%
same,percentage of apoptotic cells,"HepG2 cells [1]; HepG2, 10 μM, 48 h",50.7%
same,"Apoptosis percentage, Early apoptosis","HepG2 cells [1]; HepG2, 10 μM",37.73 ± 0.97%
same,"Apoptosis percentage, Late apoptosis","HepG2 cells [1]; HepG2, 10 μM",14.63 ± 1.17%
same,"Apoptosis percentage, Overall apoptosis","HepG2 cells [1]; HepG2, 10 μM",52.00 ± 1.41%
same,viability at 2.5 µM,"HepG2 cells [1]; Homo sapiens, HepG2, 2.5 μM, 48 h, representative plot, read-out: Q4 (Annexin V−/PI−, viable cells)",93.3%
same,viability at 5 µM,"HepG2 cells [1]; Homo sapiens, HepG2, 5.0 μM, 48 h, representative plot, read-out: Q4 (Annexin V−/PI−, viable cells)",74.2%
same,viability at 10 µM,"HepG2 cells [1]; Homo sapiens, HepG2, 10 μM, 48 h, representative plot, read-out: Q4 (Annexin V−/PI−, viable cells)",46.9%
same,"Relative expression level, Bax","Bax; HepG2, 2.5 μM",1.180 ± 0.046
same,"Relative expression level, Bax","Bax; HepG2, 5 μM",1.347 ± 0.081
same,"Relative expression level, Bax","Bax; HepG2, 10 μM",1.593 ± 0.112
same,"Relative expression level, Full length procaspase-3","procaspase-3; HepG2, 2.5 μM",0.78 ± 0.012
same,"Relative expression level, procaspase-3","procaspase-3; HepG2, 2.5 μM",0.510 ± 0.132
same,"Relative expression level, Full length procaspase-3","procaspase-3; HepG2, 5 μM",0.220 ± 0.019
same,"Relative expression level, procaspase-3","procaspase-3; HepG2, 5 μM",0.317 ± 0.031
same,"Relative expression level, Full length procaspase-3","procaspase-3; HepG2, 10 μM",0.152 ± 0.009
same,"Relative expression level, procaspase-3","procaspase-3; HepG2, 10 μM",0.170 ± 0.053
same,inhibition at 0.25 µM,"HepG2 cells [2]; HepG2, 0.25 μM",12.6 ± 1.69%
same,inhibition at 0.5 µM,"HepG2 cells [2]; HepG2, 0.5 μM",23.7 ± 0.59%
same,inhibition at 1 µM,"HepG2 cells [2]; HepG2, 1 μM",40.2 ± 2.92%
